The experiment addresses T1, heme oxygenase 1 (HO-1) (Homo sapiens, UniProt P09601).
T1 sequence (P09601 1-288): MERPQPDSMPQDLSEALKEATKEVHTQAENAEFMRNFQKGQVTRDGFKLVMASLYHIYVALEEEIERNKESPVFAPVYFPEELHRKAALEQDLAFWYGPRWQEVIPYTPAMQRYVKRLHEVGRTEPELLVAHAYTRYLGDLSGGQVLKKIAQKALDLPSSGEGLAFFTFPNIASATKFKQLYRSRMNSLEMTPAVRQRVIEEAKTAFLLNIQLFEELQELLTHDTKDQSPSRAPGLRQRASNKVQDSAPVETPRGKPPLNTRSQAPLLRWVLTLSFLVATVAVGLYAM
The experiment is described as follows: bilirubin fluorescence assay on purified HO-1. Format: biochemical.

Structures are written as SMILES.

Compound `Cc1c(O)ccc2c1OC[C@@H](c1ccc(O)cc1)[C@H]2c1ccc(O)cc1` [ME-344, (3R,4S)-3,4-bis(4-hydroxyphenyl)-8-methyl-3,4-dihydro-2H-chromen-7-ol] registered an IC50 of 17.6 nM.

What is called IC50 is the concentration that gives 50% inhibition. The low end stands for inhibition by little substance, the high end for a need for much substance.

These data come from PMC6697583 (Cancer research, 2019).
